Measured values reported in US20230265068A1, “TRANSIENT RECEPTOR POTENTIAL CANONICAL 3 INHIBITORS AND METHODS OF USE THEREOF” (University of Tennessee Research Foundation, priority 2020, published 2023).

Biological target: T1, hTRPC7 (Homo sapiens, UniProt Q9HCX4)
T1 construct: expressed in transfected cells; host or cells: HEK293, transient transfection, pMO vector
T1 sequence (Q9HCX4 1-862): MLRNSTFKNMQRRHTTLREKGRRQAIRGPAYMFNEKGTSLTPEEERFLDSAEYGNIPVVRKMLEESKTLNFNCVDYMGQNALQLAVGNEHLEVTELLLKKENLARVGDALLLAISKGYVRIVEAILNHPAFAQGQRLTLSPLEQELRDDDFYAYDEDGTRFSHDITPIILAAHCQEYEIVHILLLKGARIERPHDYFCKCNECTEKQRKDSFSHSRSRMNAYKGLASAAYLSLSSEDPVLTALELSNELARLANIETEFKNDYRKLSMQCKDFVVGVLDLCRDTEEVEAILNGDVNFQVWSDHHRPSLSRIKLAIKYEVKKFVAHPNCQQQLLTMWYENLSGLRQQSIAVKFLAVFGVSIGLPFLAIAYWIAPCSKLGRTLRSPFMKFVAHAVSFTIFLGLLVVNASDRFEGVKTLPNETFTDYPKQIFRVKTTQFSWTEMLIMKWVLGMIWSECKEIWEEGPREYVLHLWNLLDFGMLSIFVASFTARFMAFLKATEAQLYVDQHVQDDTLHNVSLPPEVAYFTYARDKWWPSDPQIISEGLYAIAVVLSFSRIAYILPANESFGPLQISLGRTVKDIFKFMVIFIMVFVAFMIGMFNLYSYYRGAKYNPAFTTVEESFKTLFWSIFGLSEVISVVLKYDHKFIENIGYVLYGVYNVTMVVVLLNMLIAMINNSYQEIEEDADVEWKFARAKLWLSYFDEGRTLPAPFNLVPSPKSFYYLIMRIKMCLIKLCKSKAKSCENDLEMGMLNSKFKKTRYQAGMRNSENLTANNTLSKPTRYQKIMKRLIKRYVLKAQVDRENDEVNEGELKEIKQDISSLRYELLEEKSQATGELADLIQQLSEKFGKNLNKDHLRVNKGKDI
Test: whole-cell patch clamp selectivity, HEK 293 cells overexpressing hTRPC7
Type: cell-based
Settings: HEK293, with agonist, solutions without Ca2+, read-out: % of the current of hTRPC7 inhibited
Protocol: Human embryonic kidney 293 (HEK293; catalog number CRL-1573) cells were cultured in Dulbecco's modified Eagle's medium (Invitrogen) supplemented with 10% fetal bovine serum and 1% penicillin-streptomycin at 37° C. and 5% CO2. Constructs cloned in pMO (a pcDNA3-modified vector) were co-transfected with GFP-pMO, using Lipofectamine 2000 (Invitrogen) according to the manufacturer's instructions. Macroscopic currents in the whole-cell patch clamp configuration were recorded 18-24 h post-transfection. The extracellular solution contained 140 mM NaCl, 6 mM KCl, 2 mM MgCl2, 10 mM HEPES, and 10 mM glucose (pH 7.4). Pipettes were made of borosilicate glass (outer diameter, 1.5 mm; inner diameter, 1.10 mm; Sutter Instruments) and fire-polished with a resistance between 2.8 and 4.0 megaohms when filled with an intracellular solution that contained 140 mM CsCl, 5 mM EGTA, and 10 mM HEPES, pH 7.2. Currents were recorded with a Multiclamp 700B amplifier (Molecular Devices) using a 1-s ramp from −100 to 100 mV. […] Data were acquired with a sampling rate of 20 kHz, low-pass filtered (10 kHz), and analyzed offline using Clampfit v10.4.2.0 (Molecular Devices). […]

Structure (SMILES): CCNC(=O)c1cnn(-c2ccc(-n3ccc(Cl)c(Cl)c3=O)cc2)c1C(F)(F)F [Compound 22]
- inhibition at 10 µM: ~22%
